Measured values reported in ChEMBL document CHEMBL1201862, “PubChem BioAssay data set” (2004).
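Method: 48-hour compound exposure of cells in 96-well plates, five concentrations, linear interpolation of endpoints. GI50: concentration for 50% inhibition of growth.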 Active and inactive are the calls of the source. No stated cut-off is given here; in the data, active = GI50 up to about 1.1 µM and inactive = higher.

Experiments:
Test in all cases: NCI tumour cell line growth inhibition, 48 h
UACC-62 = test system: UACC-62
SF-295 = test system: SF-295
KM12 = test system: KM12
Malme-3M = test system: Malme-3M
NCI-H460 = test system: NCI-H460
CCRF-CEM = test system: CCRF-CEM
ACHN = test system: ACHN
M14 = test system: M14
HT-29 = test system: HT-29
HOP-62 = test system: HOP-62
HCC 2998 = test system: HCC 2998
SK-OV-3 = test system: SK-OV-3
U-251 = test system: U-251
SNB-19 = test system: SNB-19
HL-60 = test system: HL-60
K562 = test system: K562
SN12C = test system: SN12C
COLO 205 = test system: COLO 205
SR = test system: SR
RXF 393 = test system: RXF 393

Measured: GI50

COC(=O)NCCc1n[nH]c2c1C(=O)C=C(N1CCOCC1)C2=O
inactive: UACC-62 > 100 µM | SF-295 > 100 µM | KM12 > 100 µM | Malme-3M > 100 µM | NCI-H460 > 100 µM | CCRF-CEM > 100 µM | ACHN > 100 µM | M14 > 100 µM | HT-29 > 100 µM | HOP-62 > 100 µM | HCC 2998 > 100 µM | SK-OV-3 > 100 µM | U-251 > 100 µM | SNB-19 > 100 µM | HL-60 > 100 µM | K562 > 100 µM | SN12C > 100 µM | COLO 205 > 100 µM | SR > 100 µM | RXF 393 > 100 µM

CC1(C)CCCCCC(C)(CCCO)C1=O (stereo not given)
inactive: UACC-62 > 100 µM | SF-295 > 100 µM | KM12 > 100 µM | Malme-3M > 100 µM | NCI-H460 > 100 µM | CCRF-CEM > 100 µM | ACHN > 100 µM | M14 > 100 µM | HT-29 > 100 µM | HOP-62 > 100 µM | HCC 2998 > 100 µM | SK-OV-3 > 100 µM | U-251 > 100 µM | SNB-19 > 100 µM | HL-60 > 100 µM | K562 > 100 µM | SN12C > 100 µM | COLO 205 > 100 µM | SR > 100 µM | RXF 393 > 100 µM

OCC(CO)CC1COc2ccccc2O1 (stereo not given)
inactive: UACC-62 > 10 µM | SF-295 > 10 µM | KM12 > 10 µM | Malme-3M > 10 µM | NCI-H460 > 10 µM | CCRF-CEM > 10 µM | ACHN > 10 µM | M14 > 10 µM | HT-29 > 10 µM | HOP-62 > 10 µM | HCC 2998 > 10 µM | SK-OV-3 > 10 µM | U-251 > 10 µM | SNB-19 > 10 µM | HL-60 > 10 µM | K562 > 10 µM | SN12C > 10 µM | COLO 205 > 10 µM | SR > 10 µM | RXF 393 > 10 µM
